Like-named read-outs stand apart in the source and are kept apart here. Where a SMILES comes first, the peptide text is derived from it. [ ]: non-standard residue; d: D form. The star is where a group is joined. Benzoyl(3-OH,4-OMe) = COc1ccc(C(=O)*)cc1O; ClZ = O=C(OCc1ccccc1Cl)*; Cbz = O=C(OCc1ccccc1)*

From paper PMC4197335, “Cancer-Selective Targeting of the NF-κB Survival Pathway with GADD45β/MKK7 Inhibitors” (Cancer Cell, 2014) come the findings set out here.

For the assay, the target named is T1, GADD45β/MKK7 complex (Homo sapiens, UniProt O14733).
T1 construct: Full-length human (h)MKK7 was expressed as a protein fused to an N-terminal GST tag (GST-MKK7); made in house
T1 sequence (O14733 1-419): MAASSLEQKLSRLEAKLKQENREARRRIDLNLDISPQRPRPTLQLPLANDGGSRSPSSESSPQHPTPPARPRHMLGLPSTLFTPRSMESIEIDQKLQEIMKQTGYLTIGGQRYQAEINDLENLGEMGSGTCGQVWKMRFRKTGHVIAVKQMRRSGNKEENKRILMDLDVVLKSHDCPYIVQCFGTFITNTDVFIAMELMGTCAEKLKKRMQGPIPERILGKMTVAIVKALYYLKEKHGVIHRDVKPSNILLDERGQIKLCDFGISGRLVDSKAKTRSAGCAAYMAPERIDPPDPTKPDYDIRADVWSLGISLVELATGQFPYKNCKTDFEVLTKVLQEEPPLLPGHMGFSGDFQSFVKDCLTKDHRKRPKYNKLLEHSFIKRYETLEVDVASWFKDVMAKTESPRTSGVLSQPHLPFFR
Description: ELISA GADD45β/MKK7 competition assay. The class given is binding. From the text: Additional details are provided in Supplemental Experimental Procedures.
(1:1,000) and the HRP chromogenic substrate, o -phenylenediamine (OPD). GST -coated wells wer e […]
The ELISA competition screen used f or the isolation of antagonists of the GADD45β /MKK7 […]
The library deconvolution strategy used for this screen was described previously […]
General information about this type of screens can be found elsewhere […]
Values were expressed as the percentage of inhibition of His6-hGADD45β binding to GST-hMKK7 relative to the binding measured in the absence of […]
Dose-response, ELISA GADD45β /MKK7 competition assays were carried out under similar […]
As part of the SAR analysis and lead optimization process, where appropriate, competitors were tested at a concentration up to 100 nM. In order to determine their stability in biolog ical f luids , peptides were incubated at the concentration of 10 µM in […]
calculated using at least 7 concentrations of peptide and def ined as the mean concentration of peptide […]
the absence of competitor. W here indicated, values were expressed as the percentage of inhibition of His 6 -hGADD45β binding to GST-hMKK7 relative to the binding measured in the absence of competitor.
GST was used as a control in all the experiments. […]
tetrapeptide used as negative control in some of the ELISA and cellular assays was as f ollows: z -DNC, z-T yr -Asp-His-Gln-NH 2 . […]

Setting [1] is: Table S4, values marked (##), peptide at 10 nM, read-out: % inhibition of (ELISA).
Where [2] appears, read: Table S2, peptide at 42 nM, read-out: % inhibition (ELISA).
Where [3] appears, read: Table S4, read-out: IC50s (ELISA).
The mark [4] stands for this setting: Table S3, peptide at 10 nM, read-out: % inhibition (ELISA).
Setting [5] is: Table S3, read-out: IC50 (ELISA).
Setting [6] is: Table S4, values marked (#), peptide at 42 nM, read-out: % inhibition of (ELISA).

A word on the inhibition: it is the relative decrease from the control value, in per cent. For `CC(=O)N1CCCC1C(=O)NC(CCC(=O)O)C(=O)NC(CCCNC(=N)N)C(=O)NC(Cc1ccccc1)C(N)=O` (stereo not drawn) [Ac-PERF-NH2] (Ac-PERF-NH2; configuration not given here), under setting [1], the inhibition at 0.01 µM was 24%.
For `CC(=O)N[C@@H](Cc1c[nH]c2ccccc12)C(=O)N[C@@H](CCC(=O)O)C(=O)N[C@@H](CCCNC(=N)N)C(=O)N[C@@H](Cc1ccccc1)C(N)=O` [Ac-WERF-NH2] (Ac-WERF-NH2), under setting [2], the inhibition at 0.042 µM amounted to 28%. Further, the IC50 under setting [3] is over 42 nM.
In the case of `NC(=O)[C@@H](Cc1ccccc1)NC(=O)[C@@H](Cc1c[nH]cn1)NC(=O)[C@@H](CC(=O)O)NC(=O)[C@@H](Cc1ccc(O)cc1)NC(=O)OCc1ccccc1` [z-DTP1, z-YDHF-NH2] (Cbz-[dY][dD][dH][dF]-NH2), the inhibition at 0.01 µM under setting [4] amounted to 84%.
`CC(=O)N[C@H](Cc1ccc(O)cc1)C(=O)N[C@H](CCC(=O)O)C(=O)N[C@H](CCCNC(=N)N)C(=O)N[C@H](C)C(N)=O` [Ac-YERA-NH2] (Ac-[dY][dE][dR][dA]-NH2): the inhibition at 0.01 µM under setting [1] amounted to 28%.
On to `COC(=O)C[C@@H](NC(=O)[C@@H](Cc1ccc(O)cc1)NC(=O)OCc1ccccc1)C(=O)N[C@H](Cc1c[nH]cn1)C(=O)N[C@H](CCC(N)=O)C(N)=O` [z-YD(O-methyl)HQ-NH2] (Cbz-[dY][dD](OMe)[dH][dQ]-NH2), for which the inhibition at 0.01 µM under setting [4] is 3%. Also, the IC50 under setting [5] is over 10 nM.
On to `CC(=O)N[C@H](Cc1ccc(O)cc1)C(=O)N[C@H](CC(=O)O)C(=O)N[C@H](Cc1c[nH]cn1)C(=O)N[C@H](CCC(N)=O)C(=O)N[C@H](CCCCNC(=O)OCc1ccccc1)C(N)=O` [Ac-YDHQK(εZ)-NH2] (Ac-[dY][dD][dH][dQ][dK](Cbz)-NH2), for which the inhibition at 0.01 µM under setting [4] is 2%. Further, the IC50 under setting [5] is over 10 nM.
For the molecule Ac-YDKF-NH2, the “% inhibition (ELISA)” value (Table S2, peptide at 42 nM) came out at 34%.
`N=C(N)NCCC[C@@H](NC(=O)[C@H](N)Cc1ccc(O)cc1)C(=O)N[C@H](Cc1ccc(O)cc1)C(N)=O` [H-YRY-NH2]: under setting [3], the IC50 turned out to be 0.75 nM.
In the case of `CC(=O)N[C@@H](Cc1c[nH]c2ccccc12)C(=O)N[C@@H](CC(=O)O)C(=O)N[C@@H](CCCCN)C(=O)N[C@@H](Cc1ccccc1)C(N)=O` [Ac-WDKF-NH2] (Ac-WDKF-NH2), under setting [2], the inhibition at 0.042 µM worked out at 25%.
On to `CC(=O)N[C@@H](Cc1c[nH]c2ccccc12)C(=O)N[C@@H](CCC(=O)O)C(=O)N[C@@H](CCCNC(=N)N)C(=O)N[C@@H](Cc1c[nH]c2ccccc12)C(N)=O` [Ac-WERW-NH2] (Ac-WERW-NH2), for which the inhibition at 0.042 µM was determined as 64% under setting [2] and 69% under setting [6]. Further, under setting [3], the IC50 was under 42 nM.
Take `CC(=O)N[C@@H](Cc1c[nH]c2ccccc12)C(=O)N[C@@H](CCC(=O)O)C(=O)N[C@@H](CCCCN)C(=O)N[C@@H](Cc1c[nH]c2ccccc12)C(N)=O` [Ac-WEKW-NH2] (Ac-WEKW-NH2): the inhibition at 0.042 µM under setting [2] stood at 58%. Under setting [3], the IC50 is under 42 nM.
Turning to Ac-YEHF-NH2, the “% inhibition (ELISA)” value (Table S2, peptide at 42 nM) turned out to be 52%.
In the case of `CC(=O)N[C@H](Cc1ccc(O)cc1)C(=O)N[C@H](C)C(=O)N[C@H](CCCNC(=N)N)C(=O)N[C@H](Cc1ccccc1)C(N)=O` [Ac-YARF-NH2] (Ac-[dY][dA][dR][dF]-NH2), the inhibition at 0.042 µM (read-out: % inhibition of (ELISA)) was found to be 17%.
Turning to Ac-YDRF-NH2, the “% inhibition (ELISA)” value (Table S2, peptide at 42 nM) was found to be 45%.
With `CC(=O)N[C@@H](Cc1ccc(O)cc1)C(=O)N[C@@H](CCC(=O)O)C(=O)N[C@@H](CCCCN)C(=O)N[C@@H](Cc1ccccc1)C(N)=O` [Ac-YEKF-NH2] (Ac-YEKF-NH2), the inhibition at 0.042 µM under setting [2] amounted to 64%. Moreover, under setting [3], the IC50 was under 42 nM.
As for `NC(=O)CC[C@@H](NC(=O)[C@@H](Cc1c[nH]cn1)NC(=O)[C@@H](CC(=O)O)NC(=O)[C@@H](Cc1ccc(O)cc1)NC(=O)OCc1ccccc1Cl)C(N)=O` [2CI-z-YDHQ-NH2] (ClZ-[dY][dD][dH][dQ]-NH2), the inhibition at 0.01 µM under setting [4] is 40%. In addition, the IC50 under setting [5] is over 10 nM.
Turning to `NC(=O)CC[C@@H](NC(=O)[C@@H](Cc1c[nH]cn1)NC(=O)[C@@H](CC(=O)O)NC(=O)[C@@H](Cc1ccc(O)cc1)NC(=O)OCC1c2ccccc2-c2ccccc21)C(N)=O` [Fmoc-YDFQ-NH2], the inhibition at 0.01 µM under setting [4] was 19%.
For `N=C(N)NCCC[C@@H](NC(=O)[C@@H](CCC(=O)O)NC(=O)[C@@H](Cc1ccc(O)cc1)NC(=O)OCC1c2ccccc2-c2ccccc21)C(=O)N[C@H](Cc1ccccc1)C(N)=O` [Fmoc-YERF-NH2], the inhibition at 0.01 µM under setting [4] turned out to be 60%. For the same molecule, the IC50 under setting [5] was under 10 nM.
In the case of `CC(=O)N[C@@H](Cc1ccc(O)cc1)C(=O)N[C@@H](CCC(=O)O)C(=O)N[C@@H](CCCNC(=N)N)C(=O)N[C@@H](Cc1ccccc1)C(N)=O` [Ac-LTP2, Ac-YERF-NH2], the IC50 (Figure 3B, after a 48 hr preincubation with human serum, read-out: IC50) was over 10 nM and the IC50 under setting [3] stood at 0.4 nM. Besides, under setting [2], the inhibition at 0.042 µM was 93%.
`CC(=O)NC(C)C(=O)NC(CCC(=O)O)C(=O)NC(CCCNC(=N)N)C(=O)NC(Cc1ccccc1)C(N)=O` (stereo not drawn) [Ac-AERF-NH2] (Ac-AERF-NH2; configuration not given here): the inhibition at 0.042 µM under setting [6] was determined as 7%.
Turning to `COc1ccc(C(=O)N[C@H](Cc2ccc(O)cc2)C(=O)N[C@H](CC(=O)O)C(=O)N[C@H](Cc2c[nH]cn2)C(=O)N[C@H](CCC(N)=O)C(N)=O)cc1O` ({Benzoyl(3-OH,4-OMe)}-[dY][dD][dH][dQ]-NH2), the inhibition at 0.01 µM (read-out: % inhibition (ELISA)) worked out at 7%.
`CC(=O)N[C@@H](Cc1ccc(O)cc1)C(=O)N[C@@H](CCC(=O)O)C(=O)N[C@@H](Cc1c[nH]cn1)C(=O)N[C@@H](Cc1c[nH]c2ccccc12)C(N)=O` [Ac-YEHW-NH2] (Ac-YEHW-NH2): under setting [2], the inhibition at 0.042 µM was determined as 64%. For the same molecule, the IC50 under setting [3] was under 42 nM.
As to `CC(=O)N[C@H](Cc1ccc(O)cc1)C(=O)N[C@H](CCC(=O)O)C(=O)N1CCC[C@@H]1C(=O)N[C@H](Cc1ccccc1)C(N)=O` [Ac-YEPF-NH2] (Ac-[dY][dE][dP][dF]-NH2), under setting [6], the inhibition at 0.042 µM turned out to be 13%.
On to `COc1ccc(C(=O)N[C@H](Cc2ccc(O)cc2)C(=O)N[C@H](CCC(=O)O)C(=O)N[C@H](CCCNC(=N)N)C(=O)N[C@H](Cc2ccccc2)C(N)=O)cc1O` ({Benzoyl(3-OH,4-OMe)}-[dY][dE][dR][dF]-NH2), for which the inhibition at 0.01 µM (read-out: % inhibition (ELISA)) is 86%.
`CC(=O)N[C@H](Cc1ccc(O)cc1)C(=O)N[C@H](CCC(=O)O)C(=O)N[C@H](C)C(=O)N[C@H](Cc1ccccc1)C(N)=O` [Ac-YEAF-NH2] (Ac-[dY][dE][dA][dF]-NH2): the inhibition at 0.042 µM under setting [6] was determined as 13%.
On to Ac-WEHF-NH2, for which, under “Table S2, peptide at 42 nM”, the “% inhibition (ELISA)” value worked out at 35%.
In the case of `NC(=O)[C@@H](Cc1ccccc1)NC(=O)[C@@H](Cc1c[nH]cn1)NC(=O)[C@@H](CC(=O)O)NC(=O)[C@@H](Cc1ccc(O)cc1)NC(=O)OCc1ccccc1Cl` [2CI-z-YDHF-NH2] (ClZ-[dY][dD][dH][dF]-NH2), the inhibition at 0.01 µM under setting [4] was determined as 38%. For the same molecule, under setting [5], the IC50 is over 10 nM.
In the case of `NC(=O)[C@@H](Cc1ccccc1)NC(=O)[C@@H](Cc1c[nH]cn1)NC(=O)[C@H](N)Cc1ccc(O)cc1` [H-YHF-NH2], under setting [3], the IC50 was 0.65 nM.
For the molecule `CC(=O)N[C@@H](Cc1c[nH]c2ccccc12)C(=O)N[C@@H](CC(=O)O)C(=O)N[C@@H](CCCCN)C(=O)N[C@@H](Cc1c[nH]c2ccccc12)C(N)=O` [Ac-WDKW-NH2] (Ac-WDKW-NH2), under setting [2], the inhibition at 0.042 µM was found to be 69%. The IC50 under setting [3] was under 42 nM.
On to `NC(=O)[C@@H](Cc1ccccc1)NC(=O)[C@@H](Cc1c[nH]cn1)NC(=O)[C@@H](CC(=O)O)NC(=O)[C@@H](Cc1ccc(O)cc1)NC(=O)OCC1c2ccccc2-c2ccccc21` [Fmoc-YDHF-NH2], for which, under setting [4], the inhibition at 0.01 µM worked out at 58%. Besides, under setting [5], the IC50 is under 10 nM.
